Source: a melting point compilation (Tetko et al.; mined from patent text by program, amines drawn as free bases though some values may be those of a salt)

Structure (SMILES) | melting point
COc1cc(CCC(=O)CC(=O)c2ccc(-c3ccccc3)cc2)ccc1O | 118 to 119 °C
N#Cc1cccc2c1OCCN2 | 79 to 80 °C
CS(=O)c1ccc(CSc2nnc(-c3ccc4c(c3)CCO4)o2)cc1C(F)(F)F (stereo not given) | 177 to 178 °C
CC1(C)C2CC[C@@]1(N1CCOCC1)C(=O)C2 | 89.5 to 90.5 °C
Cn1cncc1C1SCCCS1 | 112 °C
Nc1ccc(-c2ncc(NC(=O)OCc3ccccc3)c(=O)n2CC(=O)NC(Cc2ccccc2)C(=O)C(F)(F)F)cc1 (stereo not given) | 98 to 101 °C
CCC(=O)N(CC)c1cccc(-c2ccnc3c(C(=O)c4ccco4)cnn23)c1 | 165 to 167 °C
CCC(NCC(F)(F)F)c1ccc(Cl)c2nc3n(c12)CCCN3c1ccc(Cl)cc1Cl (stereo not given) | 133 to 135 °C
CNc1nc2c(cc1NC(=O)N1CCN(c3cc(OC)cc(OC)c3)CC1)CCC2 | 148 to 150 °C
Cc1cc(C)nc(NCC#N)c1 | 92 to 93 °C
COc1cc(Cl)c(-n2c(=O)cc(C(F)(F)F)n(C)c2=O)c2sc(Cl)nc12 | 185 to 187 °C
N#Cc1ccc2c(c1)N(C1CC1)C=NS2(=O)=O | 273 to 276 °C
Cc1c2ccncc2c(C)c2c1[nH]c1ccc(O)cc12 | 307 to 309 °C
Cc1cc(OCc2coc(/C=C/c3ccc(Cl)cc3)n2)ccc1CS(=O)CCc1ccnn1C (stereo not given) | 169 to 171 °C
CC(C(=O)O)c1ccc2c(-c3ccc(Cl)cc3)noc2c1 (stereo not given) | 176 to 179 °C
C[Si](C)(C)C#CC1(OC(=O)c2ccccc2)C(COC(=O)c2ccc(Cl)cc2)OC(OC(=O)c2ccccc2)C1OC(=O)c1ccccc1 (stereo not given) | 63 to 66 °C
CCOC(=O)C1COc2cc(C(C)=O)ccc2O1 (stereo not given) | 60 °C
CSC(=S)NCc1cc(=O)c(OC(c2ccccc2)c2ccccc2)cn1OC(c1ccccc1)c1ccccc1 | 176 to 178 °C
CC(=O)Nc1ccc(-c2ccc(C(O)CCC(=O)O)cc2)cc1Br (stereo not given) | 125 to 126 °C
CN(SC1CCCCCCC1Cl)C(=O)Nc1ccc(Cl)c(Cl)c1 (stereo not given) | 90 to 91 °C
CC(C)NC(=O)c1nc(-c2ccc(F)cc2)c(-c2ccc(=O)n(C(C)C)n2)s1 | 122 to 124 °C
CCCC(CCC)C(=O)O[C@H]1C[C@H](O)C=C2C=C[C@H](C)[C@H](CC[C@@H]3C[C@@H](O)CC(=O)O3)[C@H]21 | 165 to 166 °C
Cc1nccc2c3ccc(OCC4CCCCC4)cc3n(CC3CCCCC3)c12 | 152 °C
N#CC(C#N)(CC=C(Cl)Cl)Cc1ccc(OC(F)(F)F)cc1 | 96.5 °C
Nc1ncc(-c2ccc(F)c(Cl)c2)nc1C(=O)Nc1cccnc1 | 236 to 238 °C

Structure (SMILES) | melting point
CCC(=O)c1ccn(S(=O)(=O)c2ccccc2)c1C | 105 to 110 °C
Cc1nn(C)c(/C(OC(=O)C(C)(C)C)=C(\C#N)c2ccc(C(C)(C)C)cc2)c1C | 110 °C
N#Cc1ccc2oc(CCCc3cc4cc(C#N)ccc4o3)cc2c1 | 153 to 154 °C
COc1ccc(CCN(C)C(=O)COc2ccc([N+](=O)[O-])cc2)cc1OC | 121 °C
CCOC(=O)CCN(c1ccccc1)S(=O)(=O)c1ccc2c(c1)nc(CNc1ccc(C#N)cc1)n2C | 188 to 191 °C
CCCCCCCCCCc1cc2c(s1)-n1c(C)nnc1CN=C2c1ccccc1OC | 90 to 92 °C
Cn1ncc(N(CCCO)Cc2ccccc2)c(Cl)c1=O | 94 to 95 °C
CN(C)Cc1ncccc1OC1SCC(O)C(O)C1O (stereo not given) | 79 °C
Cc1nc(=O)n(-c2cc(C(=O)OC(C)C)c(Cl)cc2F)c(N)c1C#N | 255 to 257 °C
CCOC(=O)Cn1cccc(O)c1=O | 141 to 151 °C
COC(=O)CCCc1cc2nc(Cl)ccc2n1S(=O)(=O)c1ccc(Cl)cc1Cl | 100 to 101 °C
Cc1ccccc1-c1c(NC(=O)Nc2c(C)cccc2C(C)C)c(=O)oc2c(F)cc(F)cc12 | 219 to 220 °C
Oc1c(C(Nc2ccc(F)cn2)c2ccccn2)ccc2cccnc12 (stereo not given) | 165 to 168 °C
COc1ccc(C=C2SC(=S)N(CC(=O)O)C2=O)cc1OCc1ccccc1 | 234 to 239 °C
Oc1cccc(-c2ccc3nnn(Cc4ccc5ncccc5c4)c3n2)c1 | 255 to 257 °C
Cc1ccc2cc([N+](=O)[O-])c3ccc(C)nc3c2n1 | 184 to 186 °C
Cc1cc(-n2cc(-c3ccc(S(C)=O)cc3)nc2C)cc2ccc(=O)[nH]c12 (stereo not given) | 313 to 315 °C
Cn1c(C(=O)O)cc(=O)c2oc3ccc(Cl)cc3c(=O)c21 | 241 to 242 °C
Clc1ccc(-c2nc3ccccc3nc2Cl)c(Cl)c1 | 140 to 150 °C
COC(=O)COc1cc2ccccc2c2c1c(C(=O)C(N)=O)c(C)n2CC1CCCCC1 | 156 to 158 °C
O=C(O)Cc1cc2c(c([N+](=O)[O-])c1)NC(C(F)(F)F)CC2 (stereo not given) | 177 to 178 °C
N#Cc1cccc(C(Oc2ccccc2)Oc2ccccc2)n1 | 82 to 85 °C
N#CCCCCN1C(=NCCCn2ccnc2)c2cccc3cccc1c23 | 76 to 78.5 °C
CNC(=O)c1cc2c(nc(C)n2C)c2c1CCC(c1ccccc1)O2 (stereo not given) | 291 to 292 °C
CC(C)C(C#N)c1ccc(OCc2ccccc2)c(OCc2ccccc2)c1 (stereo not given) | 75 to 76 °C
